Data from patent US6924311B2, “Methods for affecting various diseases utilizing LXR compounds” (X-Ceptor Therapeutics, Inc., priority 2001, dated 2005).

Assay: Plasma HDL cholesterol levels in wildtype and LXR knockout mice
Assay type: in vivo
Conditions: 10 mg/kg daily oral, day 7
Description: To determine the individual contribution of LXRα and LXRβ to increases in HDL cholesterol levels, Compound 1 (10 mg/kg) was administered for seven days by daily oral gavage in a sesame oil/ethanol vehicle via a 1 cc syringe fitted with a 20G disposable feeding needle. Compound was solvated in ethanol (5% final volume) and brought up to final volume with sesame oil (Sigma, St. Louis, Mo.). On day 7 mice were anesthetized with isofluorane and blood samples were obtained by retro-orbital plexus puncture. Blood samples were collected in heparinized tubes, centrifuged to obtain plasma and stored at -20° C. HDL levels were determined by precipitating non-HDL cholesterol from plasma samples using a precipitating reagent (Wako Diagnostic 278-67409, Richmond, Va.). The remaining HDL cholesterol was than quantitated using a colorimetric enzymatic assay adapted to a 96 well plate format (Infinity Total Cholesterol Reagent, Sigma, St. Louis, Mo.). […] (23%) strains and unchanged when LXRβ is eliminated. […] Thus either LXRα or LXRβ alone is competent to elevate HDL cholesterol in response to agonist treatment (FIG. 5). The lack of selectivity in HDL regulation contrasts the selective decrease in triglyceride levels observed only when LXRα is eliminated (LXRα-/-, LXRαβ-/-; FIGS. 1 and 2).

Structure (SMILES): O=S(=O)(c1ccccc1)N(CC(F)(F)F)c1ccc(C(O)(C(F)(F)F)C(F)(F)F)cc1 [Compound 1, N-(2,2,2-trifluoroethyl)-N-[4-(2,2,2-trifluoro-1-hydroxy-1-trifluoromethylethyl)-phenyl]-benzene sulfonamide]
- agonist-dependent increase in HDL (LXRαβ−/− mice): completely lost
- reduction of agonist-dependent increase in HDL (LXRα−/− A129 mice versus wildtype): 23%
- reduction of agonist-dependent increase in HDL (LXRα−/− C57BL/6 mice versus wildtype): 8%
- agonist-dependent increase in HDL (LXRβ−/− mice): unchanged
- effect on HDL levels (wildtype mice): significant increase in HDL levels
